PMC6704710, “Preclinical evaluation of 3D185, a novel potent inhibitor of FGFR1/2/3 and CSF-1R, in FGFR-dependent and macrophage-dominant cancer models” (Journal of Experimental & Clinical Cancer Research : CR, 2019)

Experiments:
Assay in all cases: Eurofins kinase panel
Format in all cases: biochemical
Settings in all cases: read-out: Inhibition rate (%)
MuSK(h) = target: T1, MuSK(h) (Homo sapiens, UniProt O15146)
T1 construct: purchased Eurofins (KinaseProfiler)
T1 sequence (O15146 24-869): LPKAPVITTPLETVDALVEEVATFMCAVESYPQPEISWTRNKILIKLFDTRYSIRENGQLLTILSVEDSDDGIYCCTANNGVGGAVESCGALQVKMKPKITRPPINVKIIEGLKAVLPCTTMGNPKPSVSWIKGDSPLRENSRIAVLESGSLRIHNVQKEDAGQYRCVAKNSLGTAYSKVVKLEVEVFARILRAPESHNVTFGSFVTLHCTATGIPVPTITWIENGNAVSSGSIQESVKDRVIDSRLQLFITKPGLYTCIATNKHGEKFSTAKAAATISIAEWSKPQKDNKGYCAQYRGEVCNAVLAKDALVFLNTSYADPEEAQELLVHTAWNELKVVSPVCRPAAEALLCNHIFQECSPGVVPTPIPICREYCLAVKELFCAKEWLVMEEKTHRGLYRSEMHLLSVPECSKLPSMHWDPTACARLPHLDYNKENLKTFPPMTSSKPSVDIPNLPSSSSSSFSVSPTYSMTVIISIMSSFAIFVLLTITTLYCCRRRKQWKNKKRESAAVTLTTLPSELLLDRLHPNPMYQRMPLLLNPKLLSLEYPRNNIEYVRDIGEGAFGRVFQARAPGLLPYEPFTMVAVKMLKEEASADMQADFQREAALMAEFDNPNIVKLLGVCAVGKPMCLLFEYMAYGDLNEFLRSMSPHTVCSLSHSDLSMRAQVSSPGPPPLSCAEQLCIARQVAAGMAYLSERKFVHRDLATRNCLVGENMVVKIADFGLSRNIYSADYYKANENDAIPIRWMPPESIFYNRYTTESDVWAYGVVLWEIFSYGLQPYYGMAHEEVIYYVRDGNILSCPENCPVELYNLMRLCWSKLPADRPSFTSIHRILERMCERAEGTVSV

CHK2(I157T)(h) = target: T2, CHK2(I157T)(h) (Homo sapiens, UniProt O96017, I157T)
T2 construct: purchased Eurofins (KinaseProfiler)

Fes(h) = target: T3, Fes(h) (Homo sapiens, UniProt P07332)
T3 construct: purchased Eurofins (KinaseProfiler)

PKCε(h) = target: T4, PKCε(h) (Homo sapiens, UniProt Q02156)
T4 construct: purchased Eurofins (KinaseProfiler)
T4 sequence (Q02156 1-737): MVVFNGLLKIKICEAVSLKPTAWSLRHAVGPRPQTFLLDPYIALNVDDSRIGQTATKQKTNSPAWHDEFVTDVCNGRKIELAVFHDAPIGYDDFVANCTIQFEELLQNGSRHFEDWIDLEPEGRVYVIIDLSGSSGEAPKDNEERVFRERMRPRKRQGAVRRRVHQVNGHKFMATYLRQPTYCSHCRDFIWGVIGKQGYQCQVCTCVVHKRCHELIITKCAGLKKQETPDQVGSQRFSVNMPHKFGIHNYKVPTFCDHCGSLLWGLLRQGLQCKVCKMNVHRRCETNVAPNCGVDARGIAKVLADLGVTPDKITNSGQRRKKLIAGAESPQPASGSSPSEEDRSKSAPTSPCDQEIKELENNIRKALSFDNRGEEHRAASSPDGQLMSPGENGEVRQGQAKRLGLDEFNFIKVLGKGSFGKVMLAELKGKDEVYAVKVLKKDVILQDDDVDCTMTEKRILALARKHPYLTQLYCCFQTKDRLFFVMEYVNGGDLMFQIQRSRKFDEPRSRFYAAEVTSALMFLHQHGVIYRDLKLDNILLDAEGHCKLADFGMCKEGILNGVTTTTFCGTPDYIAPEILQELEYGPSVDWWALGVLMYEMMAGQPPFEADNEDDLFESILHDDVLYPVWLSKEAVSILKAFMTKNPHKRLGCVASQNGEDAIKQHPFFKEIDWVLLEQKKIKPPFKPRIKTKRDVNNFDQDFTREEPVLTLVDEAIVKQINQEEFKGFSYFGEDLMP

ZAK(h) = target: T5, ZAK(h) (Homo sapiens, UniProt Q9NYL2)
T5 construct: purchased Eurofins (KinaseProfiler)

SAPK2b(h) = target: T6, SAPK2b(h) (Homo sapiens, UniProt Q15759)
T6 construct: purchased Eurofins (KinaseProfiler)

GCN2(h) = target: T7, GCN2(h) (Homo sapiens, UniProt Q9P2K8)
T7 construct: purchased Eurofins (KinaseProfiler)

PKCβI(h) = target: T8, PKCβI(h) (Homo sapiens, UniProt P05771)
T8 construct: purchased Eurofins (KinaseProfiler)

EGFR(L858R)(h) = target: T9, EGFR(L858R)(h) (Homo sapiens, UniProt P00533, L858R)
T9 construct: purchased Eurofins (KinaseProfiler)

PKBγ(h) = target: T10, PKBγ(h) (Homo sapiens, UniProt Q9Y243)
T10 construct: purchased Eurofins (KinaseProfiler)

CHK2(h) = target: T11, CHK2(h) (Homo sapiens, UniProt O96017)
T11 construct: purchased Eurofins (KinaseProfiler)

CaMKK1(h) = target: T12, CaMKK1(h) (Homo sapiens, UniProt Q8N5S9)
T12 construct: purchased Eurofins (KinaseProfiler)

Arg(h) = target: T13, Arg(h) (Homo sapiens, UniProt P42684)
T13 construct: purchased Eurofins (KinaseProfiler)
T13 sequence (P42684 whole entry): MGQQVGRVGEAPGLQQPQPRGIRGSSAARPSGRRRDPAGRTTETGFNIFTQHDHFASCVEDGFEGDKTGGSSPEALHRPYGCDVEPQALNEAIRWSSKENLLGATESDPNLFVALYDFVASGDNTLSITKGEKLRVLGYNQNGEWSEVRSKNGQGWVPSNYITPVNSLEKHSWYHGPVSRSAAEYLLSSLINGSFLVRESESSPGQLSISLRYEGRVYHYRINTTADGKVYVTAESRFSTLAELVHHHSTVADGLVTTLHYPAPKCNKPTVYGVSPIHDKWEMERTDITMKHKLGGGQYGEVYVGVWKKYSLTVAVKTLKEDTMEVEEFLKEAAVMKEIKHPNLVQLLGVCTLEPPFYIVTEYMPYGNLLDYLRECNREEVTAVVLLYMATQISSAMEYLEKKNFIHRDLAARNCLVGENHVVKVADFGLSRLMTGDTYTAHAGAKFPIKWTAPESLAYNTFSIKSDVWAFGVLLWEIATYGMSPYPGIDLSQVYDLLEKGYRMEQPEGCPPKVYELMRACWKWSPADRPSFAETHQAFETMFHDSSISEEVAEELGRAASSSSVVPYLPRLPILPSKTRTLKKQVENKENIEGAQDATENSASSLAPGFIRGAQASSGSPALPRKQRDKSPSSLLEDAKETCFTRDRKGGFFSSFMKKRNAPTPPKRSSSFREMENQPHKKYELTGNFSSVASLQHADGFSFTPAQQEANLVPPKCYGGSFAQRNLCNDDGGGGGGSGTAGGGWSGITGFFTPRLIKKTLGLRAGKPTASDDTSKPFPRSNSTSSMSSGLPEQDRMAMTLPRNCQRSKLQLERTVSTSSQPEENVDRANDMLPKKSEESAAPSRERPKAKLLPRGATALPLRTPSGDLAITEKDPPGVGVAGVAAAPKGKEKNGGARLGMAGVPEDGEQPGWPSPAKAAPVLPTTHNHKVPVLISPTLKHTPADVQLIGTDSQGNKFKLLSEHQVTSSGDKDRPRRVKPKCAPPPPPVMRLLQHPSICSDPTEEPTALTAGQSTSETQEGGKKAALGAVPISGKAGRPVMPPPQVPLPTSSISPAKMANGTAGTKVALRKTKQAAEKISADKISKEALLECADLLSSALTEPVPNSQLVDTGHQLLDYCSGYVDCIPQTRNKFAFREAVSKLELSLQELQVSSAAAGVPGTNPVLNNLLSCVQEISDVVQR

T3 sequence (P07332 whole entry): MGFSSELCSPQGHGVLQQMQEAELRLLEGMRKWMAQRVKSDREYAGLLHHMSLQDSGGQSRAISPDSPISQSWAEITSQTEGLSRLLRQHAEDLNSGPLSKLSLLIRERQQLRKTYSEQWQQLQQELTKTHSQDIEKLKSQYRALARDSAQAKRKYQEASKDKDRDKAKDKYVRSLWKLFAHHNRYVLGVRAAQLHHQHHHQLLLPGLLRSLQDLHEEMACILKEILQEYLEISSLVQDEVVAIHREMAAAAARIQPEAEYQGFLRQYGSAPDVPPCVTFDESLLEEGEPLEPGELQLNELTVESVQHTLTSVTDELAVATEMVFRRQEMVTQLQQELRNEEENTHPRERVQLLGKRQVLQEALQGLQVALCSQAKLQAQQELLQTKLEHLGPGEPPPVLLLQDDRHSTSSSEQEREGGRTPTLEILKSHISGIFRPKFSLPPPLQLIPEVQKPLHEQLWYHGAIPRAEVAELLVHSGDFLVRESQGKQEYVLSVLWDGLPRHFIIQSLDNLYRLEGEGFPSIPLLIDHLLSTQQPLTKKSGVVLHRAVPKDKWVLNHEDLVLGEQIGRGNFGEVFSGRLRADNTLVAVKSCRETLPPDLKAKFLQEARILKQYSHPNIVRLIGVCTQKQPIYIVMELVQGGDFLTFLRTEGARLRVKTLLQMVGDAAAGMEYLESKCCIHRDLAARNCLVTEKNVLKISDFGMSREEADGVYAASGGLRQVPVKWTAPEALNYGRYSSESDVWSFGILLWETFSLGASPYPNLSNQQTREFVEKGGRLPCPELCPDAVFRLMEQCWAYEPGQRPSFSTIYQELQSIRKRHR
T6 sequence (Q15759 whole entry): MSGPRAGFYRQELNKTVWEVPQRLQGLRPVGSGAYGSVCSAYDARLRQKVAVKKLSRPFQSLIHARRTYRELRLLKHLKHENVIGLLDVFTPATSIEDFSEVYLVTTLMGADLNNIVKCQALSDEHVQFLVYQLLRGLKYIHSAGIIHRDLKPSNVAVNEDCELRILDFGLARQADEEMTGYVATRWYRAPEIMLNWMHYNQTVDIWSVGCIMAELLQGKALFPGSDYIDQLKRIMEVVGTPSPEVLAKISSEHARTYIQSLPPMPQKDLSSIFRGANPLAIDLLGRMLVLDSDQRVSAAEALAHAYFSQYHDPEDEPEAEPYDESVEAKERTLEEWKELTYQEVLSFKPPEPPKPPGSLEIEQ
T5 sequence (Q9NYL2 whole entry): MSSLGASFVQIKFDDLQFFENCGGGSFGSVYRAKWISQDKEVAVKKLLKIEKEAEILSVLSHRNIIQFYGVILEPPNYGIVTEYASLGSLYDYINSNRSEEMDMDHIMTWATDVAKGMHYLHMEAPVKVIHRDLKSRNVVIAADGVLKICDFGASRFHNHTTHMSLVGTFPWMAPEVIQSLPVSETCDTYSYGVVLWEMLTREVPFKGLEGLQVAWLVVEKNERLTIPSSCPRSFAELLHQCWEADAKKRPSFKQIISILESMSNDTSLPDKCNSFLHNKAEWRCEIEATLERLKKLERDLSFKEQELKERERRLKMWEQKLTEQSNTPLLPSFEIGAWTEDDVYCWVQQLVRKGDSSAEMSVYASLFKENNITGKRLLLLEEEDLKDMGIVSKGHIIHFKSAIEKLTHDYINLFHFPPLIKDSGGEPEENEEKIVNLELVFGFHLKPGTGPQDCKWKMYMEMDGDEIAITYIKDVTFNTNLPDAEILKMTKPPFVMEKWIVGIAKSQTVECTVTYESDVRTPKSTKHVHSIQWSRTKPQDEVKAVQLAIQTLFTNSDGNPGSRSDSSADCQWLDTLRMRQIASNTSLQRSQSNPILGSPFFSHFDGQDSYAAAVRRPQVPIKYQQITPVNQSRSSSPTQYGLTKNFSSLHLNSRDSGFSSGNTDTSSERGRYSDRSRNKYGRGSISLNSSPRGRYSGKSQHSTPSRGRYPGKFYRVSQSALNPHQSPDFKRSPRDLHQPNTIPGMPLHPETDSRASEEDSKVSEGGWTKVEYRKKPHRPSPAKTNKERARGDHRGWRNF
T9 sequence (P00533 25-1210 L858R): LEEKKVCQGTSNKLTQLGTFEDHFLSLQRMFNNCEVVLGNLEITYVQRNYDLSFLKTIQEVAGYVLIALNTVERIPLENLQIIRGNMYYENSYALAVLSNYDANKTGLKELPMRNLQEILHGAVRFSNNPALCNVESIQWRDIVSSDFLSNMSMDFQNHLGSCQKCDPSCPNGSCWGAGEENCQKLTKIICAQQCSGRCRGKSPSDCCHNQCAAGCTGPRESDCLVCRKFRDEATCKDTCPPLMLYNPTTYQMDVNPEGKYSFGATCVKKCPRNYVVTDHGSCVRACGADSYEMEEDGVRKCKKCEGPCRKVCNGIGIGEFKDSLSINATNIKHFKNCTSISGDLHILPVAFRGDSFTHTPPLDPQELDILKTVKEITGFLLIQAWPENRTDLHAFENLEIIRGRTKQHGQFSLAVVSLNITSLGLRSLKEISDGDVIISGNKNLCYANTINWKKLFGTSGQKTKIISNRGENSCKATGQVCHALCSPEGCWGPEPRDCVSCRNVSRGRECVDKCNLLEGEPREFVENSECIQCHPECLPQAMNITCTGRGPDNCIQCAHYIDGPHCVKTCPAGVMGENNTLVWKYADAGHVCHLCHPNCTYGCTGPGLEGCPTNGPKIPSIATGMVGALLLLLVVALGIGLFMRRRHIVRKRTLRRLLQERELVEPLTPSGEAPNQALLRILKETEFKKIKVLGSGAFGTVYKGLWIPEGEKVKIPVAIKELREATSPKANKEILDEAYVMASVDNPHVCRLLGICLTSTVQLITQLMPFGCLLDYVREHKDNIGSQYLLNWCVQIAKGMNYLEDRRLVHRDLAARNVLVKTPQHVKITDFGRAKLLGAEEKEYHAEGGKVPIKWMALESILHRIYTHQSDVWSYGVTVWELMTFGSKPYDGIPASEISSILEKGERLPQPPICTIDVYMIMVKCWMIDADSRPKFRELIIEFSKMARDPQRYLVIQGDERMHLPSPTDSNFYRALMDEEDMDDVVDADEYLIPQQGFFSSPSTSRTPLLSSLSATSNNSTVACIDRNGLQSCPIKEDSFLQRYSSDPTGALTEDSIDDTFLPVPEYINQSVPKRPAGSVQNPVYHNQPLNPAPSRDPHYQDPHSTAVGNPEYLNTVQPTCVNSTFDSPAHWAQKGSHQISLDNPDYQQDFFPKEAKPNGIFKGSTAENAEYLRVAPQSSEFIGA
T10 sequence (Q9Y243 whole entry): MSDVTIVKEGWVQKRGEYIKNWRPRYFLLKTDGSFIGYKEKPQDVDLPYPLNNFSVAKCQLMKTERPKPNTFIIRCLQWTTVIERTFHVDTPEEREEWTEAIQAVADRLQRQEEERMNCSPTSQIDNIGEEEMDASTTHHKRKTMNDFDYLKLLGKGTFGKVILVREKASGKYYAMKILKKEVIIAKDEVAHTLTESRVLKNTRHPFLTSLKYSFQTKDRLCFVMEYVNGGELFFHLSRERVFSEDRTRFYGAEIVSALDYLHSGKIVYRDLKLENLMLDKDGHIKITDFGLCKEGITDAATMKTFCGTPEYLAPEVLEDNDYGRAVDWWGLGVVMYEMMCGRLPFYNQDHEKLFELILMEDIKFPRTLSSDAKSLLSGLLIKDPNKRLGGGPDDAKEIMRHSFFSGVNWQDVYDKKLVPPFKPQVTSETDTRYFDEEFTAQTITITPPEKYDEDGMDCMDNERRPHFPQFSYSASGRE

COc1cc(OC)c(Cl)c(-c2ccc3c(NC(=O)c4ccc(N5CCNC(C)(C)C5)cc4)n[nH]c3n2)c1Cl [3D185] was tested, and the inhibition at 0.01 µM (MuSK(h); 10 nM) was 2%, the inhibition at 0.1 µM (MuSK(h); 100 nM) was 7% and the inhibition at 1 µM (MuSK(h); 1000 nM) was 47%. It also gave an inhibition at 0.01 µM (CHK2(I157T)(h); 10 nM) of -6%, an inhibition at 0.1 µM (CHK2(I157T)(h); 100 nM) of -5% and an inhibition at 1 µM (CHK2(I157T)(h); 1000 nM) of -1%. It also gave an inhibition at 0.01 µM (Fes(h); 10 nM) of -8%, an inhibition at 0.1 µM (Fes(h); 100 nM) of 36% and an inhibition at 1 µM (Fes(h); 1000 nM) of 91%. It also gave an inhibition at 0.01 µM (PKCε(h); 10 nM) of -4%, an inhibition at 0.1 µM (PKCε(h); 100 nM) of -10% and an inhibition at 1 µM (PKCε(h); 1000 nM) of -6%. It also gave an inhibition at 0.01 µM (ZAK(h); 10 nM) of 1%, an inhibition at 0.1 µM (ZAK(h); 100 nM) of -2% and an inhibition at 1 µM (ZAK(h); 1000 nM) of 8%. The inhibition at 0.01 µM (SAPK2b(h); 10 nM) was 3%, the inhibition at 0.1 µM (SAPK2b(h); 100 nM) was 14% and the inhibition at 1 µM (SAPK2b(h); 1000 nM) was 20%. It also gave an inhibition at 0.01 µM (GCN2(h); 10 nM) of 3%, an inhibition at 0.1 µM (GCN2(h); 100 nM) of -12% and an inhibition at 1 µM (GCN2(h); 1000 nM) of -49%. It also gave an inhibition at 0.01 µM (PKCβI(h); 10 nM) of -7%, an inhibition at 0.1 µM (PKCβI(h); 100 nM) of -3% and an inhibition at 1 µM (PKCβI(h); 1000 nM) of -1%. The inhibition at 0.01 µM (EGFR(L858R)(h); 10 nM) was 1%, the inhibition at 0.1 µM (EGFR(L858R)(h); 100 nM) was 9% and the inhibition at 1 µM (EGFR(L858R)(h); 1000 nM) was 30%. It also gave an inhibition at 0.01 µM (PKBγ(h); 10 nM) of 4%, an inhibition at 0.1 µM (PKBγ(h); 100 nM) of 12% and an inhibition at 1 µM (PKBγ(h); 1000 nM) of 20%. It also gave an inhibition at 0.01 µM (CHK2(h); 10 nM) of 0%, an inhibition at 0.1 µM (CHK2(h); 100 nM) of 4% and an inhibition at 1 µM (CHK2(h); 1000 nM) of 11%. It also gave an inhibition at 0.01 µM (CaMKK1(h); 10 nM) of -1%, an inhibition at 0.1 µM (CaMKK1(h); 100 nM) of 5% and an inhibition at 1 µM (CaMKK1(h); 1000 nM) of 35%. For the same compound, the inhibition at 0.01 µM (Arg(h); 10 nM) was 2%, the inhibition at 0.1 µM (Arg(h); 100 nM) was 36% and the inhibition at 1 µM (Arg(h); 1000 nM) was 87%.
